The values below come from ChEMBL document CHEMBL3861982, “Three new alkaloids from Veratrum grandiflorum Loes with inhibition activities on Hedgehog pathway” (Bioorg Med Chem Lett, 2016).

Structures are written as SMILES.

This test in a line: Inhibition of hedgehog signaling pathway in mouse Shh Light2 cells assessed as inhibition of sonic hedgehog-induced GLI1-mediated transcriptional activity measured after 30 hrs by dual luciferase reporter gene assay. The note with it: Shh Light2, 30 h. The class given is cell-based. For orientation: Reporter assays use an easily measured gene product as a stand-in for the process of interest.
The term IC50 denotes the concentration needed to halve the response being measured. For `C[C@H]1CC[C@@H]2[C@@H](C)[C@H]3[C@H](C[C@H]4[C@@H]5CC=C6C[C@@H](O)CC[C@]6(C)[C@H]5CC[C@]34C)N2C1`, the IC50 is above 25000 nM. As to `CC(=O)O[C@@H]1C[C@H]2[C@@H](CC=C3C[C@@H](O[C@@H]4O[C@H](CO)[C@@H](O)[C@H](O)[C@H]4O)CC[C@@]32C)[C@@H]2CC[C@H]([C@H](C)C3=NC[C@H](C)CC3=O)[C@@]12C`, the IC50 worked out at 1110 nM. The value for `CC(=O)O[C@H]1C[C@H]2[C@@H]3CC=C4C[C@@H](O[C@@H]5O[C@H](CO)[C@@H](O)[C@H](O)[C@H]5O)CC[C@]4(C)[C@H]3CC[C@]2(C)[C@H]1[C@H](C)C1=NC[C@H](C)CC1` was above 25000 nM. The result for `Cc1c([C@H](C)[C@H]2CC[C@H](C)CN2)ccc2c1C[C@H]1[C@H]2CC=C2C[C@@H](O)CC[C@@]21C` reads 630 nM; that for `C/C=C(/C)C(=O)O[C@H]1CC[C@@]2(C)[C@@H]3CC[C@H]4[C@]5(O)[C@@H](O)[C@H](O)[C@H]6[C@@H](CN7C[C@@H](C)CC[C@H]7[C@@]6(C)O)[C@@H]5C[C@@]42O[C@@]13O`, above 25000 nM; that for `CC(=O)O[C@@H]1C[C@H]2[C@@H](CC=C3C[C@@H](O)CC[C@@]32C)[C@@H]2CC[C@H]([C@@](C)(O)C3=NC[C@H](C)CC3)[C@@]12C`, 3110 nM. The result for `CC(=O)O[C@@H]1C[C@H]2[C@@H](CC=C3C[C@@H](O[C@@H]4O[C@H](CO)[C@@H](O)[C@H](O)[C@H]4O)CC[C@@]32C)[C@@H]2CC[C@H]([C@@](C)(O)C3=NC[C@H](C)CC3)[C@@]12C` reads 2780 nM; that for `CC1=C2C[C@H]3[C@@H](CC=C4C[C@@H](O)CC[C@@]43C)[C@@H]2CC[C@]12O[C@@H]1C[C@H](C)CN[C@H]1[C@H]2C` [CYCLOPAMINE], 74.1 nM.
